Test results as given in patent US20190365784A1, “USE OF BRASSINOSTEROID ANALOGS FOR THE TREATMENT OF DERMAL DISORDERS BY SELECTIVELY MODULATING LIVER X RECEPTORS (LXR) AND DERMAL DISEASE TREATMENT BY BRASSINOSTEROID ANALOGS ACTING AS SELECTIVE LIVER X RECEPTOR (LXR) MODULATORS” (CONSEJO NACIONAL DE INVESTIGACIONES CIENTÍFICAS Y TÉCNICAS …, priority 2015, published 2019).
Values joined by “and” are separate entries in the source; they are usually repeats but may differ in a detail not shown here. Identical values can stand only once. Marks after values point to notes of the source that are not given here. Each block holds one compound with its values, some of them ahead of it.

Experiments:
[1] = Liver weight and gross morphology (hepatic steatosis) in C57BI mice after 5 days i.p. treatment; assay type: in vivo; conditions: male C57BI mice, T0901317 5 mg/kg i.p. daily for 5 days
Method: (§1) Administration of synthetic LXR agonists such as T0901317 induces a marked increment of liver lipogenesis that leads to hepatic steatosis and plasma hypertriglyceridemia.
(§2) Male C57BI mice received daily for 5 days intraperitoneal injections containing either 10 mg Compound I/kg, or 5 mg T0901317/kg, or vehicle [90% (v/v) DMSO in apyrogenic sterile water]. On the sixth day of the assay, the animals were fasted for 4 h before decapitation. Blood plasma was obtained for the determination of total cholesterol, HDL-cholesterol and triglyceride contents. The livers were resected, and their weights and colors used as gross markers of increased liver triglyceride contents.

[2] = Plasma total cholesterol, HDL-cholesterol and triglyceride in C57BI mice after 5 days i.p. treatment; assay type: in vivo; conditions: male C57BI mice; T0901317 5 mg/kg i.p. daily for 5 days
Method: as §1, §2

[3] = molecular target: T1, LXR-alpha (Homo sapiens, UniProt Q13133); experiment: LXR-alpha/RXR LRE-luciferase reporter in transfected HEK293T cells; assay type: cell-based; conditions: 10 uM, 18 h
T1 sequence (Q13133 1-447): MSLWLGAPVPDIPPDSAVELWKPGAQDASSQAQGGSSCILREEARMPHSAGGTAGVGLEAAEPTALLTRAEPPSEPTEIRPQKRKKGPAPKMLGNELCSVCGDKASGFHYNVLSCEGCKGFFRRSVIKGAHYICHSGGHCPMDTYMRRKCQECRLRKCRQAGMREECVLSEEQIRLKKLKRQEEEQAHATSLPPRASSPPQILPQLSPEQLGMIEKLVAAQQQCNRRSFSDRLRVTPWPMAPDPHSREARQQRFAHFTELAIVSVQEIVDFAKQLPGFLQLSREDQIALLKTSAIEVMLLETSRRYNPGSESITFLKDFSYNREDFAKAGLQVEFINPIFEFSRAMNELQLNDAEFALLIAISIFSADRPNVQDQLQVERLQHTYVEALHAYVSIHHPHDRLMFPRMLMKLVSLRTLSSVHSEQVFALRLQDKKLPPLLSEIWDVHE
T1 sequence (P19793 1-462 partner): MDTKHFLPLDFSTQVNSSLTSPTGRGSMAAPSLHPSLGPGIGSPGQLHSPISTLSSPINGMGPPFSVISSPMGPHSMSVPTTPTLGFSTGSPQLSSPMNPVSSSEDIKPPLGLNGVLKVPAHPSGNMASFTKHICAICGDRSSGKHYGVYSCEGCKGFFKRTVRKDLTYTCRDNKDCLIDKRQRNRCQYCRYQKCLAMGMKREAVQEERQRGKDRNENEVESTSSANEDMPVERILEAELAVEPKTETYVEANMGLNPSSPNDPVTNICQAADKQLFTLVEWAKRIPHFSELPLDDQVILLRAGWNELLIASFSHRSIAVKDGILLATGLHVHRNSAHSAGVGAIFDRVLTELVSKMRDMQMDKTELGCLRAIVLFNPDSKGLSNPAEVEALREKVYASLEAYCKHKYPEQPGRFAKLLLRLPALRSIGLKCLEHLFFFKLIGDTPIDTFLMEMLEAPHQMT
Source text: Since we had previously shown that the beneficial effects of the compounds of the invention are independent of glucocorticoid receptor (GR) activation, we set forth to investigate if they might exert their actions through activation of liver X receptors (LXR). For this purpose we used cultured cells transiently transfected with LXR-alpha, the retinoid X receptor (RXR) and a LXR response element-luciferase reporter (LRE-LUC). A. Human embryonic kidney cells (HEK293T; 5×10^5 cells/well) were cultured in DMEM medium supplemented with 10% (v/v) fetal bovine serum, 100 ug/ml of streptomycin, 100 IU/ml of penicillin and 2 mM glutamine. For the transient transfections, the cell cultures were added with plasmids carrying LXR-alpha (pLXR-alpha; 0.6 ug), the retinoid X receptor (pRXR; 0.2 ug), a LXR response element-luciferase reporter (pRE-LUC; 0.7 ug) and beta-galactosidase gene (pRSV-LacZ; 0.6 ug) as a transfection control, using Lipofectamine 2000 (Invitrogen). […] Compounds III to VI are […] analogs bearing a fluorine atom at C-6. To assess LXR-alpha activation, at the end of the incubation period luciferase activity was measured by use of a luciferase assay system (Promega). The results of three independent assays, carried out in duplicate for each condition, are reported.

[4] = test system: imiquimod-induced skin lesions; experiment: Imiquimod-induced psoriasis model in mice: clinical signs and dorsal skin histopathology; assay type: in vivo; parameters: key to Hyperkeratosis, protective effect / Epidermal serocellular crust, protective effect / Acanthosis, protective effect / Dermal inflammatory infiltrates, protective effect: the (+) sign represents the presence of a protective effect; a (−) sign represents the absence of protective effect
Source text: To test whether Compound I might ameliorate the signs of psoriasis, we topically administered Compound I to imiquimod-induced skin lesions in mice. The imiquimod mouse model of psoriasis-like skin inflammation is characterized by lesions that show augmented epidermal cell proliferation, abnormal keratinocyte differentiation, neutrophil accumulation in epidermal microabcesses, and neoangiogenesis.
For this study, thirty two 8-week old female Balbc/J mice were housed […] in positively ventilated polysulfonate cages with HEPA filtered air at a density of 4 mice per cage. The animal room was lighted entirely with artificial fluorescent lighting, with a controlled 12 h light/dark cycle (6 am to 6 pm light). The normal temperature and relative humidity ranges in the animal rooms were 22±4° C. and 50±15%, respectively. The animal rooms were set to have a minimum of 15 air exchanges per hour. Filtered tap water, acidified to a pH of 2.5 to 3.0, and standard rodent chow were provided ad libitum. After 1 week of acclimation mice were randomized into 4 groups (n=8/each) as shown below (Table 1).
1. IMQ induction: On day 0 all grouped mice received a topical dose of 62.5 mg of IMQ cream (5%) on the shaved back for 6 consecutive days. (Day 0 to Day 5)
3. Mice were scored for clinical parameters of disease based on degree of erythema, scaling and thickening independently on a scale of 0-4. 0=none; 1=slight; 2=moderate; 3=moderate to severe: 4=severe. These observations were recorded on day 0, 2, 4, 6, and 8. On the same days, back skin thickness was measured with calipers.
5. Mice were sacrificed on day 10 by CO2 asphyxiation.
6. A part of the back skin was harvested and fixed for histology. Slides were processed, stained with H&E for histology assessment.
Dorsal skin sections were evaluated histopathologically for evidence of key features of psoriasis, such as parakeratosis, hyperkeratosis (thickening of the stratum corneum), acanthosis (diffuse thickening of the stratum spinosum of the skin), epidermal serocellular crusts, epidermal microabscesses, basilar papillae, dermal inflammatory infiltrates and dilated tortuous capillaries (Table 2. Histopathological scoring system and definition used in the Imiquimod psoriasis model).

[5] = Body and spleen weight in imiquimod psoriasis model mice; conditions: 9 days topical treatment
Method: Mice were dosed with 0.1-0.2 ml of vehicle [90% (v/v) DMSO in pyrogen-free sterile water] or test compounds (0.1-0.2 ml of Compound I) or reference compound (˜0.05 mg clobetasol propionate, 0.5 mg/g cream) for 9 days (day 0-day 8) as indicated in Table 1. Compound I Doses 1 and 2 were 0.05% (w/v) and 0.1% (w/v) in 90% (v/v) DMSO in vehicle.
Body weights were measured daily.
Spleens were harvested, weighed and discarded.

[6] = psoriatic mice, topical 0.05%, QD 9 days
[7] = topical 0.05%, summary of Table 3

liver color versus DMSO-treated mice [1]: paler | liver steatosis (liver weight and color) [1]: induces liver steatosis | liver weight higher than in DMSO-treated mice ([1]; 5 mg/kg): 27% and ~23% | HDL-cholesterol plasmatic content higher than in Compound I- or Vehicle-treated mice [2]: 50% | total cholesterol plasmatic content higher than in Compound I- or Vehicle-treated mice [2]: 50% | triglyceride plasmatic content higher than in Compound I- or Vehicle-treated mice [2]: > 2 times
Compound: O=S(=O)(c1ccccc1)N(CC(F)(F)F)c1ccc(C(O)(C(F)(F)F)C(F)(F)F)cc1 [Compound T0901317]

Compound: CC[C@@H](C(C)C)[C@H](O)[C@@H](O)[C@@H](C)[C@H]1CC[C@H]2[C@@H]3C[C@@H](F)C4=CC(=O)C=C[C@]4(C)[C@H]3CC[C@]12C [Compound VI, (22S,23S)-6β-fluoro-22,23-dihydroxystigmasta-1,4-dien-3-one]
induction of LXR-alpha driven gene expression compared with GW3965 (1 uM) [3]: within the same range as that observed for GW3965

Compound: CC[C@@H](C(C)C)[C@H](O)[C@@H](O)[C@@H](C)[C@H]1CC[C@H]2[C@@H]3C[C@@H](F)C4=CC(=O)CC[C@]4(C)[C@H]3CC[C@]12C [Compound IV, (22S,23S)-6β-fluoro-22,23-dihydroxystigmast-4-en-3-one]
induction of LXR-alpha driven gene expression compared with GW3965 (1 uM) [3]: within the same range as that observed for GW3965

Compound: CCC(=O)O[C@]1(C(=O)CCl)[C@@H](C)C[C@H]2[C@@H]3CCC4=CC(=O)C=C[C@]4(C)[C@@]3(F)[C@@H](O)C[C@@]21C [Clobetasol, clobetasol propionate, reference compound]
acanthosis reduced versus 0.1% (w/v) Compound I-treated animals ([4]; Clobetasol-treated mice): 33% | dermal inflammatory infiltrates versus 0.1% (w/v) Compound I-treated animals ([4]; Clobetasol-treated mice): absent | back skin thickening (calipers) ([4]; after 9 days topical, Compound I 0.05% and 0.1% (w/v), clobetasol 0.05% cream): inhibited IMQ-induced skin thickening in the back | global response score of dorsal skin, lower than in vehicle-treated psoriatic mice ([4]; clobetasol 0.05% topical, 9 days): ~42% | skin erythema (clinical score 0-4, in words) ([4]; day 8, topical QD 9 days, both Compound I doses 0.05% and 0.1% (w/v), clobetasol 0.05% cream): absent | scaling (clinical score 0-4, in words) ([4]; day 8, topical QD 9 days, both Compound I doses, clobetasol 0.05% cream): absent in ⅝ mice and slight in the rest of the animals | Acanthosis (0-4), group mean score of dorsal skin [4, 6]: 1.4†† | Basliar papillae (0-4), group mean score of dorsal skin [4, 6]: 0.0 | Dermal inflammatory infiltrates (0-4), group mean score of dorsal skin [4, 6]: 0.0†† | Dilated tortuous capillaries (0-4), group mean score of dorsal skin [4, 6]: 0.0 | Epidermal micro-abscesses (0-4), group mean score of dorsal skin [4, 6]: 0.0 | Epidermal serocellular rust (0-4), group mean score of dorsal skin [4, 6]: 0.6 | Hyperkeratosis (0-4), group mean score of dorsal skin [4, 6]: 1.8 | Mean Global Score, dorsal skin [4, 6]: 3.8 | Parakeratosis (0-4), group mean score of dorsal skin [4, 6]: 0.0 | severity of microscopic alterations of back skin (histopathology) ([4]; topical 0.05%, QD 9 days): lowest severity | Acanthosis, protective effect [4, 7]: + | Dermal inflammatory infiltrates, protective effect [4, 7]: + | Epidermal serocellular crust, protective effect [4, 7]: − | Hyperkeratosis, protective effect [4, 7]: − | reduction of body weight compared with vehicle-treated psoriatic mice [5]: 15% | reduction of spleen weight compared with vehicle-treated psoriatic mice [5]: 62.6%
